In patent publication US10314827B2, “Methods of use of cyclopamine analogs” (Infinity Pharmaceuticals, Inc., priority 2006, dated 2019):
Read-outs that look alike come from different tables or passages of the source.

Test system: Hedgehog pathway
Test: C3H10T1/2 osteoblast differentiation assay (alkaline phosphatase readout)
Format: cell-based, Mouse
Settings: C3H10T1/2 cells, sonic Hedgehog 250 ng/ml, AP activity normalized to total protein, read-out: Differentiation Assay EC50 (approximate EC50 for inhibition)
From the text: Hedgehog pathway specific cancer cell killing effects may be ascertained using the following assay. C3H10T1/2 cells differentiate into osteoblasts when contacted with the sonic hedgehog peptide (Shh-N). Upon differentiation; these osteoblasts produce high levels of alkaline phosphatase (AP) which can be measured in an enzymatic assay (Nakamura et al., X BBRC (1997) 237:465). Compounds that block the differentiation of C3H10T1/2 into osteoblasts (a Shh dependent event) can therefore be identified by a reduction in AP production (van der Horst et al., Bone (2003) 33:899). The assay details are described below. The results approximate (EC50 for inhibition) of the differentiation assay is shown below in Table 1.
Mouse embryonic mesoderm fibroblasts C3H10T1/2 cells (obtained from ATCC) were cultured in Basal MEM Media (Gibco/Invitrogen) supplemented with 10% heat inactivated FBS (Hyclone), 50 units/ml penicillin and 50 ug/ml streptomycin (Gibco/Invitrogen) at 37° C. With 5% CO2 in air atmosphere.
C3H10T1/2 cells were plated in 96 wells with a density of 8×10^3 cells/well. Cells were grown to confluence (72 hrs). After sonic Hedgehog (250 ng/ml), and/or compound treatment, the cells were lysed in 110 μL of lysis buffer (50 mm Tris ph 7.4, 0.1% tritonx100), plates were sonicated and lysates spun through 0.2 μm PVDF plates (Corning). 40 μL of lysates was assayed for AP activity in alkaline buffer solution (Sigma) containing 1 mg/ml p-Nitrophenyl Phosphate. After incubating for 30 min at 37° C., the plates were read on an Envision plate reader at 405 nm. Total protein was quantified with a BCA protein assay kit from Pierce according to manufacturer's instructions. AP activity was normalized against total protein.

Row | SMILES | EC50 (Mus musculus, C3H 10T1/2) [nM] | EC50 [nM]
1 | CC1=C2C[C@H]3[C@@H](CC[C@@H]4CC(=O)CC[C@@]43C)[C@@H]2CC[C@@]2(C1)O[C@@H]1C[C@H](C)CN[C@H]1[C@H]2C [Compound 1] | < 20 | 
2 | CC1=C2C[C@H]3[C@@H](CC=C4C[C@@H](OCc5ccccc5)CC[C@@]43C)[C@@H]2CC[C@@]2(C1)O[C@@H]1C[C@H](C)CN(C(=O)OCc3ccccc3)[C@H]1[C@H]2C [Compound 7] |  | > 100
3 | CC1=C2C[C@H]3[C@@H](CC[C@@H]4CCCC[C@@]43C)[C@@H]2CC[C@@]2(C1)O[C@@H]1C[C@H](C)CN[C@H]1[C@H]2C [Compound 9] | > 100 | 
4 | CC1=C2C[C@H]3[C@@H](CC[C@@H]4CC(=O)CC[C@@]43C)[C@@H]2CC[C@@]2(C1)O[C@@H]1C[C@H](C)CN(C(C)C)[C@H]1[C@H]2C [Compound 10] | > 100 | 
5 | CC1=C2C[C@H]3[C@@H](CC[C@@H]4CC(=O)CC[C@@]43C)[C@@H]2CC[C@@]2(C1)O[C@@H]1C[C@H](C)CN(CCNCC(=O)c3ccccc3)[C@H]1[C@H]2C [Compound 13] |  | < 20
6 | CC1=C2C[C@H]3[C@@H](CCC4=CC(=O)CC[C@@]43C)[C@@H]2CC[C@@]2(C1)O[C@@H]1C[C@H](C)CN(CCN(C)C)[C@H]1[C@H]2C [Compound 20] |  | < 20
